According to US5294725A, “Scopularin” (E. R. Squibb & Sons, Inc., priority 1989, dated 1994):
Converted amounts (≈) assume the structure as drawn.

Assays:
lanosterol demethylase [1] = biological target: T1, lanosterol demethylase (Candida albicans, UniProt P10613); experiment: Radiolabeled metabolic assay of lanosterol demethylase inhibition (14C-acetate, lanosterol accumulation); format: cell-based; conditions: Candida albicans SC5314, 1 hour, 30°, TLC autoradiography
T1 construct: endogenous in cells; host or cells: Candida albicans SC5314
Procedure: (§1) The inhibition of lanosterol demethylase was determined by two methods: the spectrophotometric carbon monoxide binding assay of Omura and Sato (J. Biol. Chem. 239:2370-2378, 1964) and by a radiolabeled metabolic assay.
The ability of scopularin and its alcohol to inhibit the lanosterol demethylase of Candida albicans can also be visualized by a metabolic assay. Candida albicans SC5314, was grown overnight at 30° with shaking in the same medium as that used above. Cells were harvested by centrifugation and resuspended in water to give an optical density of 0.3 at 660 nm. 750 μl of this cell suspension, 300 μl of a medium containing 0.35 g Difco yeast nitrogen base without amino acids, 1 g glucose and distilled water to 10 ml, 100 μl of test material and distilled water were combined to give a final volume of 1.425 ml. This was incubated for 15 minutes at 30° C. with shaking, then 3 μCi ^14 C-acetate was added and continued to incubate for 1 hour. Cells were harvested by centrifugation and extracted with 2×0.5 ml methanol; centrifuged, decanted supernate and repeated the extraction with […] methanol-benzene (1:1). Centrifuged, decanted; combined supernates, dried and resuspended in 100 μl chloroform-methanol (1:1). The aliquots were spotted onto silica gel 60 (Merck) plates and developed chromatographically in a solvent containing dichloromethane-acetone (60:1). […]

Candida albicans = experiment: Agar dilution MIC assay; format: cell-based
Procedure: (§2) The following methodology was used to determine the miniumum inhibitory concentration (hereinafter referred to as MIC) of scopularin.
(§3) The aerobic test organisms were grown in approximately 15-20 ml of Antibiotic Assay Broth (Difco) by inoculating (in tubes) the broth with a loopful of the organism from a BHI (Difco) agar slant. The inoculated tubes were incubated at 37° C. for 18 to 24 hours. These cultures are assumed to contain 10^7 colony forming units (CFU) per ml and the cultures were diluted 1:100 to give a final inoculum level of 10^5 CFU dilutions were made with Yeast Beef Broth (Difco).
(§4) Scopularin was dissolved in an appropriate diluent at a concentration of 1,000 μg/ml. Two-fold dilutions were made in Yeast Beef Broth (Difco), resulting in a range from 1000 μg/ml to 0.5 μg/ml. 1.5 ml of each dilution was placed into individual petri dishes to which 13.5 ml of K-10 agar was added. The composition of K-10 agar is:
(§5) The final drug concentration in the agar ranged from 100 μg/ml to 0.05 μg/ml. Organism growth control plates containing agar only were prepared and inoculated before and after the test plates. The organisms were applied to the agar surface of each plate with a Denyl Multipoint Inoculator (which delivers approximately 0.001 ml of each organism) resulting in a final inoculum of 10^4 CFU on the agar surface.
(§6) The plates were incubated at 37° C. for 18 hours and the MICs determined. The MIC is the lowest concentration of compound inhibiting growth of the organism.

Candida krusei = experiment: Agar dilution MIC assay; format: cell-based; conditions: Pichia kudriavzevii, SC2967, 18 h
Procedure: as §2, §3, §4, §5, §6

lanosterol demethylase [2] = biological target: T1, lanosterol demethylase; experiment: Spectrophotometric carbon monoxide binding assay (Omura and Sato); conditions: Candida albicans SGY677, read-out: 50% inhibition of carbon monoxide binding
Procedure: as §1
Cells of Candida albicans, SGY677, were grown overnight without shaking at 30° C. in a medium consisting of yeast extract 1% , peptone 2%, glucose 2% and distilled water. Cells were harvested by centrifugation and resuspended in 0.65M mannitol to an optical density at 600 nm of 2.5. At this density 1 ml of cells was equal to 6.7 mg constant dry weight (105° C. for 18 hours).

T1 sequence (P10613 whole entry): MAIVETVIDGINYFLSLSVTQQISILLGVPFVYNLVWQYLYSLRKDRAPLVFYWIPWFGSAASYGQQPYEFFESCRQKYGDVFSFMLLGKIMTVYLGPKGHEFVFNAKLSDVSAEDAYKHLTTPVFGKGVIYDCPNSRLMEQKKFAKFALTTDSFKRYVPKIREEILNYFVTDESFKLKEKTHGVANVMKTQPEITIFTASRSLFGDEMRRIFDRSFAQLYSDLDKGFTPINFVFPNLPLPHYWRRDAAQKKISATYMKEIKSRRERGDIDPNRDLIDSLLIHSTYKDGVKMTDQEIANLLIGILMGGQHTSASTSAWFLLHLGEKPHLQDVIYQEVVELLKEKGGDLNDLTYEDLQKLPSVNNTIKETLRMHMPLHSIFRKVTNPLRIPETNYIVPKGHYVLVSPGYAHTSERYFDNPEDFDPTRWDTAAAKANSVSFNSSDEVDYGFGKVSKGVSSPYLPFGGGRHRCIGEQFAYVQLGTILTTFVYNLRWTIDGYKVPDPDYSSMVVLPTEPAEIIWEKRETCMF

Compound	concentration causing accumulation of lanosterol, consistent with inhibition of lanosterol demethylase (lanosterol demethylase [1]) [µM]	MIC (Candida albicans; SC12, 18 h) [µg/mL]	MIC (Candida albicans; SC14, 18 h) [µg/mL]	MIC (Candida krusei) [µg/mL]	IC50 (lanosterol demethylase [2]) [µM]
CCC/C=C/C=C/C=C(\C)[C@H]1OC[C@@H](C)[C@@H](OC)[C@@H]1OC(=O)CN (relative stereo) [Scopularin, (2α, 3β, 4α, 5α)-Tetrahydro-4-methoxy-5-methyl-2-(1-methyl-1,3,5-nonatrienyl)-2H-pyran-3-ol, amino-acetate ester]	360	100 (≈ 296 µM)	50 (≈ 148 µM)	0.4 (≈ 1.19 µM)	–
CCCC=CC=CC=C(C)[C@H]1OC[C@@H](C)[C@@H](OC)[C@@H]1O (relative stereo) [alcohol]	14	–	–	–	14
